Test results reported in patent US20240124456A1, “AZA-ERGOLINE DERIVATIVE AND PREPARATION METHOD THEREFOR AND APPLICATION THEREOF” (SHANGHAITECH UNIVERSITY, priority 2021, published 2024).

Columns and labels:
dopamine D2 receptors [1] = target: T1, dopamine D2 receptors (Homo sapiens (Human), UniProt P14416); experiment: β-arrestin2 recruitment BRET, dopamine D2 receptor functional activity; type: cell-based; conditions: for Emax / β-arrestin2 BRET Emax % ± SEM: relative to the endogenous ligand dopamine; for Emax: read-out: β-arrestin2 BRET Emax % ± SEM
T1 sequence (P14416 whole entry, the tested form may be a part): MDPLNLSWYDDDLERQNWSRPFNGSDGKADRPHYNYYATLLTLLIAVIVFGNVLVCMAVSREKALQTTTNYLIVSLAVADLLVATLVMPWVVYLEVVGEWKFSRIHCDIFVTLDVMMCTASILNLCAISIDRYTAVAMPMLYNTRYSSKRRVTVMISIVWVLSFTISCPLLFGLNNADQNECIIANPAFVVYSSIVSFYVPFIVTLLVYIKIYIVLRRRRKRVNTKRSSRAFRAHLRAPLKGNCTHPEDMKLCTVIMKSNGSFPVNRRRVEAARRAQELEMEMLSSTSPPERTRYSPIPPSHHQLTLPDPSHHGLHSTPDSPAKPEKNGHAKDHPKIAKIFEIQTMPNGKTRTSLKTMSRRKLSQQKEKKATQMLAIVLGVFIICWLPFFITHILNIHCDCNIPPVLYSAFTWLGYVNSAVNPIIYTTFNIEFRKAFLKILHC
Procedure: To examine the downstream f3-arrestin2 signaling pathway mediated by dopamine D2 receptors, 6 cm dish was used for transfection with 500 […] of dopamine D2 receptors fused to seaweed luciferase (D2-Rluc), 500 μg of G protein-coupled receptor kinase 2 (GRK2), 2500 μg of β-arrestin2 fused to green fluorescent protein (GFP2-ARRB2) and 14 μL of transfection reagent PEI. The next day, the overgrown cells were digested and plated a 96-well plate at the amount of cells contained in a 6 cm culture dish with overgrown cells, and 100 μL of culture medium was added to each well. On the third day, the drugs were added for test.
(§1) To examine downstream G-protein signaling pathway mediated by dopamine D2 receptors, on the first day, 6 cm dish was used for transfection with 1μg of dopamine D2 receptors, 1μg of Gαi1 containing C-terminal seaweed luciferase (GGαi1-Rluc), 1 μg of […], 1 μg of Gγ9 containing C-terminal green fluorescent protein (Gγ9-GFP) and 16 μL of PEI. At the same time, in order to examine the downstream f3-arrestin2 signaling pathway mediated by dopamine D2 receptors, on the first day, 6 cm dish was used for transfection with 500 μg of dopamine D2 receptors containing C-terminal seaweed luciferase (D2-Rluc), 500 μg of G protein-coupled receptor kinase 2 (GRK2), 2500 μg of […] containing N-terminal green fluorescent protein (GFP2-ARRB2) and 14 μL of PEI. The next day, the overgrown cells were digested and plated a 96-well plate at the amount of cells contained in a 6 cm culture dish with overgrown cells, and 100 μL of culture medium was added to each well. On the third day, the drugs were added for test. The 96-well plate was taken out from the cell culture room to remove the culture medium, 40 μL of the substrate coelenterazine 400a (final concentration of 5 μM) was added to each well, and then 20 μL of different drugs were added in turn from left to right to ensure that the final concentration of the drugs decreased gradually from bottom to top, and each treatment was repeated twice. Finally, the prepared samples were loaded on machine for test. The machine reading value reflected the intracellular β-arrestin2 on the membrane and the dissociation of G protein trimer. The former indicated the degree of activation of the β-arrestin2 signaling pathway downstream of the dopamine D2 receptors, and the latter indicated the degree of activation of the G protein signaling pathway downstream of the dopamine D2 receptors.

dopamine D2 receptors [2] = target: T1, dopamine D2 receptors; experiment: Radioligand competition binding, affinity for dopamine D2 receptors ([3H]-Methylspiperone); conditions: [3H]-Methylspiperone (0.3-0.5 nM), HEK-293T membranes; for Ki: I-1 to 19 n=3, I-20 to 27 single determination; for Affinity pKi ± SEM: n=3
Procedure: A 10 cm diameter dish was used for transfection with 10 ng of the dopamine D2 receptors and 40 μL of PEI. After 48 hours, the 10 cm dish was taken out from the cell culture room and the cultured cells had expressed the dopamine D2 receptors. A vacuum pump was used to suck off the culture medium, 3 mL of lysis buffer (50 mM Tris hydrochloric acid buffer, pH 7.4) was added to each well, and the cells were placed in a 4° C. freezer for 10 minutes. After the cells were detached, the cells were transferred to a 15 mL centrifuge tube and centrifuged at 1500 rpm for 5 minutes at 4° C., and the supernatant was discarded. The cell pellet was transferred to a tissue homogenizer, and 3 mL of lysis buffer was added and fully ground until the cells were broken. Then, cell suspension was equally divided into several EP tubes, centrifuged at 4° C. and 12000 rpm for 5 min, and the supernatant was discarded. The precipitate was the cell membrane component containing the dopamine D2 receptors and stored at −80° C.
First, a standard binding buffer (50 mM HEPES, 50 mM NaCl, 5 mM MgCl2, 0.5 mM EDTA, pH 7.4) was added to the cell membrane component containing the dopamine D2 receptors, and the cell membrane was disrupted and resuspended with an electric tissue homogenizer. 30 μL of membrane protein suspension was added to each well of a 96-well plate. Then, 30 μL of different drugs were added to the 96-well plate from left to right to ensure that the final drug concentrations were 10^−5 M, 10^−6 M, 10^−7 M, 10^−8 M, 10^−9 M and 0 M, with two replicates per treatment. Next, 30 μL [^3H]-N-Methylspiperone was added to each well of the 96-well plate, and the plate was incubated for 2 hours at room temperature in the dark. The unbound isotopes were removed by Whatman GF/C filter membrane and vacuum pump, and the isotopes bound to the receptors were detected by MicroBeta isotope liquid scintillation counter.
The affinity of the compounds of the present invention for the dopamine D2 receptors was determined by the method of radioligand competition experiment. In the first step, a cell membrane component containing specific dopamine D2 receptors was prepared. A10 cm dish was used for transfection with 10 ng of the dopamine D2 receptors and 40 μL of PEI. After 48 hours, the 10 cm dish was taken out from the cell culture room and the cultured cells had expressed the dopamine D2 receptors. A vacuum pump was used to suck off the culture medium, 3 mL of lysis buffer was added to each well, and the cells were placed in a 4° C. freezer for 10 minutes. After the cells were detached, the cells were transferred to a 15 mL centrifuge tube and centrifuged at 1500 rpm for 5 minutes at 4° C., and the supernatant was discarded. The cell pellet was transferred to a tissue homogenizer, and 3 mL of lysis buffer was added and fully ground until the cells were broken. Then, cell suspension was equally divided into several EP tubes, centrifuged at 4° C. and 12000 rpm for 5 min, and the supernatant was discarded. The precipitate was the cell membrane component containing the dopamine D2 receptors. […] First, a standard binding buffer was added to the cell membrane component containing the dopamine D2 receptors, and the cell membrane was disrupted and resuspended with an electric tissue homogenizer. 30 μL of membrane protein suspension was added to each well of a 96-well plate. Then, 30 μL of different drugs were added to the 96-well plate from left to right to ensure that the final drug concentrations were 10^−5 M, 10^−6 M, 10^−7 M, 10^−8 M, 10^−9 M and 0 M, with two replicates per treatment. Next, 30 μL [^3H]-Methylspiperone was added to each well of the 96-well plate. The plate was incubated for 2 hours at room temperature in the dark. Detection. The machine reading value reflected the amount of [^3H]-Methylspiperone bound on the membrane, and after further data processing, the affinity Ki value of different compounds for dopamine D2 receptors was obtained.

dopamine D2 receptors [3] = target: T1, dopamine D2 receptors; experiment: G protein Gαi1-γ9 dissociation BRET, dopamine D2 receptor functional activity; type: cell-based; conditions: for Emax / Gai1 BRET Emax % ± SEM: relative to the endogenous ligand dopamine; for Emax: read-out: Gai1 BRET Emax % ± SEM
Procedure: To examine downstream G protein signaling mediated by dopamine D2 receptors, 6 cm dish was used for transfection with 1μg of dopamine D2 receptors, 1μg of Gαi1 fused to seaweed luciferase (Gαi1-Rluc), 1 μg of Gβ3, 1 μg of Gγ9 fused to green fluorescent protein (Gγ9-GFP) and 16 μL of transfection reagent PEI. […] On the third day, the drugs were added for test.
as §1

[4] = HEK-293T, I-1 to 19 n=3, I-20 to 27 single determination, read-out: β-arrestin2 BRET EC50
[5] = HEK-293T, I-1 to 19 n=3, I-20 to 27 single determination, read-out: Gai1 BRET EC50
[6] = n=3, read-out: β-arrestin2 BRET pEC50 ± SEM (converted)
[7] = n=3, read-out: Gai1 BRET pEC50 ± SEM (converted)

| Compound | EC50 (dopamine D2 receptors [1]; [4]) [nM] | Emax (dopamine D2 receptors [1]) [%] | Ki (dopamine D2 receptors [2]) [nM] | Affinity pKi ± SEM (dopamine D2 receptors [2]) | EC50 (dopamine D2 receptors [3]; [5]) [nM] | Emax (dopamine D2 receptors [3]) [%] | EC50 (dopamine D2 receptors [1]; [6]) [nM] | β-arrestin2 BRET Emax % ± SEM (dopamine D2 receptors [1]) [%] | EC50 (dopamine D2 receptors [3]; [7]) [nM] | Gai1 BRET Emax % ± SEM (dopamine D2 receptors [3]) [%] | β-arrestin2 BRET pEC50 ± SEM (dopamine D2 receptors [1]; n=3) | Gai1 BRET pEC50 ± SEM (dopamine D2 receptors [3]; n=3) |
| --- | --- | --- | --- | --- | --- | --- | --- | --- | --- | --- | --- | --- |
| Cn1cc2c3c(cccc31)N1CCN(CCCCOc3ccc4ccc(=O)[nH]c4c3)CC1C2 (stereo not drawn) [Compound I-18, 7-(4-(4-methyl-4,6,6a,7,9,10-hexahydro-8H-pyrazino[1,2-a]pyrrolo[4,3,2-de]quinolin-8-yl)butoxy)quinolin-2(1H)-one] | 110 | 50 | 61 | (7.22 ± 0.02) | 11 | 77 | – | – | – | – | – | – |
| c1cc2c3c(c[nH]c3c1)CC1CN(CCCCOc3ccc4c(c3)OCC4)CCN21 (stereo not drawn) [Compound I-6, 8-(4-((2,3-dihydrobenzofuran-6-yl)oxy)butyl)-6,6a,7,8,9,10-hexahydro-4H-pyrazino[1,2-a]pyrrolo[4,3,2-de]quinoline] | 61.6 | 61 | 51.6 | (7.29 ± 0.10) | 6.64 | 86 | – | – | – | – | – | – |
| O=S(=O)(N[C@H]1CC[C@H](CCN2CCN3c4cccc5[nH]cc(c45)CC3C2)CC1)c1ccccc1 (stereo partly drawn) [Compound I-15, N-(4-(2-(4,6,6a,7,9,10-hexahydro-8H-pyrazino[1,2-a]pyrrolo[4,3,2-de]quinolin-8-yl)ethyl)cyclohexyl)phenylsulfonamide] | 31.5 | 80 | 77.5 | (7.11 ± 0.12) | 2.65 | 94 | – | – | – | – | – | – |
| O=c1ccc2ccc(OCCCCN3CCN4c5cccc6[nH]cc(c56)CC4C3)cc2[nH]1 (single isomer, unassigned; (-)) [(−)-I-2] | – | – | 1.75 | – | 3 | – | 18.2 | 76 ± 2 | 2.75 | 91 ± 3 | – | – |
| Cc1nc2cc(OCCCCN3CCN4c5cccc6[nH]cc(c56)CC4C3)ccc2o1 (stereo not drawn) [Compound I-4, 5-(4-(4,6,6a,7,9,10-hexahydro-8H-pyrazino[1,2-a]pyrrolo[4,3,2-de]quinolin-8-yl)butoxy)-2-methylbenzo[d]oxazole] | 71 | 66 | 30.3 | (7.52 ± 0.08) | 6.68 | 80 | – | – | – | – | – | – |
| O=c1ccc2ccc(OCCCCN3CCN4c5cccc6[nH]cc(c56)CC4C3)cc2[nH]1 (single isomer, unassigned; (+)) [(+)-I-2] | – | 89 | 8.87 | – | 1 | 95 | 15.8 | – | 0.851 | – | – | – |
| Cc1noc2cc(OCCCCN3CCN4c5cccc6[nH]cc(c56)CC4C3)ccc12 (stereo not drawn) [Compound I-5, 6-(4-(4,6,6a,7,9,10-hexahydro-8H-pyrazino[1,2-a]pyrrolo[4,3,2-de]quinolin-8-yl)butoxy)-3-methylbenzo[d] is oxazole] | 54 | 61 | 37.1 | (7.43 ± 0.09) | 7.44 | 83 | – | – | – | – | – | – |
| O=C(N[C@H]1CC[C@H](CCN2CCN3c4cccc5[nH]cc(c45)CC3C2)CC1)c1cc2ccccc2[nH]1 (stereo partly drawn) [Compound I-13] | 146 | – | 16.3 | (7.79 ± 0.07) | 6.74 | – | – | 48 ± 8 | – | 92 ± 3 | 6.84 ± 0.12 | 8.17 ± 0.08 |
| O=c1ccc2ccc(OCCCN3CCN4c5cccc6[nH]cc(c56)CC4C3)cc2[nH]1 (stereo not drawn) [Compound I-8, 7-(3-(4,6,6a,7,9,10-hexahydro-8H-pyrazino[1,2-a]pyrrolo[4,3,2-de]quinolin-8-yl)propoxy)quinolin-2(1H)-one] | 110 | 98 | 0.49 | (9.31 ± 0.15) | 38.9 | 94 | – | – | – | – | – | – |
| O=C(N[C@H]1CC[C@H](CCN2CCN3c4cccc5[nH]cc(c45)CC3C2)CC1)c1ccccc1 (stereo partly drawn) [Compound I-14, N-(4-(2-(4,6,6a,7,9,10-hexahydro-8H-pyrazino[1,2-a]pyrrolo[4,3,2-de]quinolin-8-yl)ethyl)trans-cyclohexyl)benzamide] | 27.7 | 41 | 40.7 | (7.39 ± 0.05) | 1.67 | 72 | – | – | – | – | – | – |
| Cn1cc2c3c(cccc31)N1CCN(C/C=C/COc3ccc4ccc(=O)[nH]c4c3)CC1C2 (stereo not drawn) [Compound I-23, (E)-7-((4-(4-methyl-4,6,6a,7,9,10-hexahydro-8H-pyrazino[1,2-a]pyrrolo[4,3,2-de]quinolin-8-yl)-2-buten-1-yl)oxy)quinolin-2(1H)-one] | 294 | 36 | 100 | – | 54.8 | 38 | – | – | – | – | – | – |
| Cn1cc2c3c(cccc31)N1CCN(C/C=C/COc3ccc4c(c3)NC(=O)CC4)CC1C2 (stereo not drawn) [Compound I-22, (E)-7-((4-(4-methyl-4,6,6a,7,9,10-hexahydro-8H-pyrazino[1,2-a]pyrrolo[4,3,2-de]quinolin-8-yl)-2-buten-1-yl)oxy)-3,4-dihydroquinolin-2(1H)-one] | 91.6 | 32 | 176 | – | 38 | 41 | – | – | – | – | – | – |
